Data set [1] deals with Dipeptidyl peptidase 2 (Homo sapiens, UniProt Q9UHL4). The data set can be described thus: Inhibitory activity against recombinant DPP2.
In data set [2] the target is T1, Prolyl endopeptidase FAP (Homo sapiens, UniProt Q12884).
T1 sequence (Q12884 whole entry): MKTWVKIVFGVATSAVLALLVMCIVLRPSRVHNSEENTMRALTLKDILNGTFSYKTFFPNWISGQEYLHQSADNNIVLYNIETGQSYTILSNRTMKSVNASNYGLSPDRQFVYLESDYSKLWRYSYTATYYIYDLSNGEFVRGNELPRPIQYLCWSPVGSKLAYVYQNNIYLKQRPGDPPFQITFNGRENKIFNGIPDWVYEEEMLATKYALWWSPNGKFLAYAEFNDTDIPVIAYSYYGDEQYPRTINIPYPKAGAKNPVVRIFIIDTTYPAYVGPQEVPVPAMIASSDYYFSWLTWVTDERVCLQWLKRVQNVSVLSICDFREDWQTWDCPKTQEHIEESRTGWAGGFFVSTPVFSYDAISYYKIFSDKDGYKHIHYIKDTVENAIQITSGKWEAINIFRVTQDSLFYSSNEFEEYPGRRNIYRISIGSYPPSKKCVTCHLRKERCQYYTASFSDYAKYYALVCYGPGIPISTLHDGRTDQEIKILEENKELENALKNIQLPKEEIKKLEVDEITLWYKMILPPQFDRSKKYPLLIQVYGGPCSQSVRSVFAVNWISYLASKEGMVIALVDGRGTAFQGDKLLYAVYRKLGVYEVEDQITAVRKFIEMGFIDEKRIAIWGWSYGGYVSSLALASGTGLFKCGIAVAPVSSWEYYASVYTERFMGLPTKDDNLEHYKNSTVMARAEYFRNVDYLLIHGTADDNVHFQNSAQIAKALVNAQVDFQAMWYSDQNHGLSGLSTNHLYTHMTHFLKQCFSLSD
The data set can be described thus: Inhibitory activity against recombinant seprase.

Data set [3] in a line: Oral bioavailability in rat, po. To be noted: in vivo. It is filed as ADME, organism-based.
The species entered for data set [4] is Homo sapiens. The data set can be described thus: Inhibition of cytochrome P450.
Data set [5] is described as follows: Half life in rat. It is filed as ADME, organism-based. To be noted: in vivo.
Data set [6] can be described thus: Half life in dog. In kind it is ADME, organism-based, Canis lupus familiaris. As to conditions: in vivo.
Data set [7] can be described thus: Oral bioavailability in dog. In kind it is ADME, organism-based, Canis lupus familiaris. To be noted: in vivo.
The nature of data set [8]: Half life cyclization at 37 C, pH 7.2. It is filed as ADME.
Data set [9] can be described thus: Oral bioavailability in rat. It is filed as ADME, organism-based. To be noted: in vivo.
The subject of data set [10] is Canis familiaris. Nature of the data set: Gastro-Intestinal toxicity in dog at 10 mg/kg, po. More on the design: dose 10 mg/kg, route oral. As to conditions: in vivo. In kind it is organism-based, Canis lupus familiaris.

25 compounds from ChEMBL document CHEMBL1141969, “2-Cyano-4-fluoro-1-thiovalylpyrrolidine analogues as potent inhibitors of DPP-IV” (Bioorg Med Chem Lett, 2005) can be followed below.

Some results are limits rather than exact numbers.

With `CC(=O)NCSC(C)(C)[C@H](N)C(=O)N1C[C@@H](F)C[C@H]1C#N`, in data set [1], the Ki is greater than 22.4 µM.

For `COc1ccccc1CS(=O)(=O)C(C)(C)[C@H](N)C(=O)N1C[C@@H](F)C[C@H]1C#N`, in [1], the inhibitory constant (Ki) was greater than 22.4 µM.

As for `CC(C)(SCc1ccccn1)[C@H](N)C(=O)N1C[C@@H](F)C[C@H]1C#N`, in data set [1], the Ki was greater than 22.4 µM.

Take `CC(=O)Nc1ccc(CS(=O)(=O)C(C)(C)[C@H](N)C(=O)N2C[C@@H](F)C[C@H]2C#N)cc1`: in [1], the inhibition constant (Ki) was greater than 22.4 µM.

For `CC(C)([C@H](N)C(=O)N1C[C@@H](F)C[C@H]1C#N)S(=O)(=O)Cc1ccc(F)cc1`, the inhibitory constant (Ki) was greater than 22.4 µM in data set [1] and greater than 23.4 µM in [2].

As to `CC(C)([C@H](N)C(=O)N1C[C@@H](F)C[C@H]1C#N)S(=O)(=O)Cc1csc2ccc(Cl)cc12`, the Ki in data set [1] is greater than 22.4 µM.

On to `CC(C)(SCc1ccc(C(F)(F)F)cc1)[C@H](N)C(=O)N1C[C@@H](F)C[C@H]1C#N`, for which, in data set [2], the inhibition constant (Ki) is greater than 23.4 µM.

Consider `CC(C)([C@H](N)C(=O)N1C[C@@H](F)C[C@H]1C#N)S(=O)(=O)Cc1cccc(Oc2ccccc2)c1`, for which the inhibition constant (Ki) in [1] was greater than 22.4 µM.

On to `CC(C)([C@H](N)C(=O)N1C[C@@H](F)C[C@H]1C#N)S(=O)(=O)Cc1ccc(S(C)(=O)=O)cc1`, for which the inhibition constant (Ki) in [2] was greater than 23.4 µM. The compound further came in with a bioavailability in [3] of less than 5%.

Consider `CC(C)([C@H](N)C(=O)N1C[C@@H](F)C[C@H]1C#N)S(=O)(=O)O`, for which, in [1], the inhibitory constant (Ki) was greater than 22.4 µM.

For the compound `COc1cccc(CS(=O)(=O)C(C)(C)[C@H](N)C(=O)N2C[C@@H](F)C[C@H]2C#N)c1`, the Ki in data set [1] was greater than 22.4 µM.

On to `CC(C)(SCCc1ccccc1)[C@H](N)C(=O)N1C[C@@H](F)C[C@H]1C#N`, for which, in [2], the Ki was greater than 23.4 µM.

For `CC(C)([C@H](N)C(=O)N1C[C@@H](F)C[C@H]1C#N)S(=O)(=O)Cc1ccncc1`, the results for the Ki in data set [1] and in data set [2] were greater than 22.4 µM and greater than 23.4 µM, respectively.

Take `COc1ccc(C[S+]([O-])C(C)(C)[C@H](N)C(=O)N2C[C@@H](F)C[C@H]2C#N)cc1` (stereo partly drawn): the figures for the inhibitory constant (Ki) in data set [1] and in [2] were greater than 22.4 µM and greater than 23.4 µM, respectively.

`COc1ccc(CS(=O)(=O)C(C)(C)[C@H](N)C(=O)N2CCC[C@H]2C#N)cc1` showed a half-inhibitory concentration (IC50) in data set [4] greater than 15 µM. In addition, the half-life in [5] was 4.2 h; in data set [6] it was 3 h; in data set [8], 360 h. Also, the bioavailability in [7] was determined as 100%; in [9], 4%.

`CC(C)([C@H](N)C(=O)N1C[C@@H](F)C[C@H]1C#N)S(=O)(=O)Cc1ccc(OCc2ccccc2)cc1`: the inhibitory constant (Ki) in data set [1] is greater than 22.4 µM.

As for `Cc1ccc(CS(=O)(=O)C(C)(C)[C@H](N)C(=O)N2C[C@@H](F)C[C@H]2C#N)cc1`, the figures for the Ki in [1] and in [2] were greater than 22.4 µM and greater than 23.4 µM, respectively.

With `COc1ccc(CSC(C)(C)[C@H](N)C(=O)N2C[C@@H](F)C[C@H]2C#N)cc1`, the Ki in [2] was greater than 23.4 µM.

`CC(C)([C@H](N)C(=O)N1C[C@@H](F)C[C@H]1C#N)S(=O)(=O)Cc1ccc(C#N)cc1`: in data set [1], the Ki is greater than 22.4 µM. Also, the Activity entry in data set [10] was “Toxic”.

Consider `CC(C)([C@H](N)C(=O)N1C[C@@H](F)C[C@H]1C#N)S(=O)(=O)CCCc1ccccc1`, for which the Ki in [1] is greater than 22.4 µM; in data set [2], greater than 23.4 µM.

For `CC(C)(SCc1ccncc1)[C@H](N)C(=O)N1C[C@@H](F)C[C@H]1C#N`, in data set [1], the Ki was greater than 22.4 µM.

With `CC(C)([C@H](N)C(=O)N1C[C@@H](F)C[C@H]1C#N)S(=O)(=O)Cc1ccccc1`, the inhibition constant Ki in data set [1] was greater than 22.4 µM; in data set [2] it was greater than 23.4 µM.

With `CC(C)([C@H](N)C(=O)N1C[C@@H](F)C[C@H]1C#N)S(=O)(=O)Cc1ccc(-c2ccccc2)cc1`, the Ki in data set [1] was greater than 22.4 µM.

The compound `COc1ccc(CS(=O)(=O)C(C)(C)[C@H](N)C(=O)N2C[C@@H](F)C[C@H]2C#N)cc1` yielded a half-inhibitory concentration (IC50) in data set [4] greater than 15 µM. The half-life was 2.3 h in data set [5] and 3.9 h in data set [6]. Besides, the Ki in [1] is greater than 22.4 µM; in data set [2], greater than 23.4 µM.

Turning to `CC(C)(SCc1cccnc1)[C@H](N)C(=O)N1C[C@@H](F)C[C@H]1C#N`, the inhibition constant (Ki) is greater than 22.4 µM in data set [1] and greater than 23.4 µM in [2].
